In article PMC9961271, “Inhibitory Effects of a Novel μ-Opioid Receptor Nonpeptide Antagonist, UD-030, on Morphine-Induced Conditioned Place Preference” (International Journal of Molecular Sciences, 2023):
Where a name gives a salt, the structure may show the parent alone.

What was measured:
human MOP [1] = target: T1, human MOP (Homo sapiens, UniProt P35372); assay: [35S]-GTPγS binding assay, hMOP/CHO membranes; format: biochemical
C57BL/6J mice [2] = assay: Acquisition of morphine-induced conditioned place preference; format: in vivo, male C57BL/6J mice; details: for time spent in the drug-paired compartment, postconditioning / time spent in the drug-paired compartment, preconditioning: n = 8; for morphine-induced CPP score compared with the vehicle-pretreated group: Dunnett's test
Experimental: (§1) For the pharmacokinetic and pharmacological studies, morphine hydrochloride (Takeda Pharma, Osaka, Japan) was dissolved and diluted in saline and administered intraperitoneally (i.p.) in a volume of 10 mL/kg body weight. […] All experiments were conducted with a dose of morphine (10 mg/kg) that is sufficient to elicit CPP.
(§2) Male Crl:CD1 (ICR) mice (Japan CLEA, Tokyo, Japan) were used at 5 weeks of age for the pharmacokinetic analysis. Male C57BL/6J mice (Japan CLEA) were used at 7 weeks of age for the behavioral analyses. The mice were housed 4–6 per cage in an environment at 23 °C ± 1 °C and 50% ± 5% humidity with free access to food and water under a 12 h/12 h light/dark cycle. All experiments were performed with approval from the Institutional Animal Care and Use Committee at the Tokyo Metropolitan Institute of Medical Science.
(§3) The CPP test was performed using a two-compartment Plexiglas chamber. […] For the preconditioning and postconditioning phases, a T-style division with double 60 mm × 60 mm openings allowed the mice to access both compartments. During the conditioning phases, the openings were eliminated to restrict the mice to one of the compartments. The CPP apparatus was placed in a sound-attenuated, light-controlled box. On day 1 (preconditioning: habituation) and day 2 (preconditioning: pretest), the mice freely explored the two compartments for 900 s, and the time spent in each compartment during the exploratory period and locomotor activity were measured using an infrared detector (Neuroscience, Osaka, Japan). We selected a counterbalanced protocol to nullify each mouse’s initial preference as discussed previously. […] Conditioning was conducted once daily for 4 consecutive days (days 3–6). The mice were injected with morphine (10.0 mg/kg, i.p.) or saline and immediately confined to the black or white compartment for 60 min on day 3. On day 4, the mice were alternately injected with saline or drug and immediately confined to the opposite compartment for 60 min. On days 5 and 6, the same conditioning as on days 3 and 4 was repeated. The assignment of the mice to the conditioned compartment was performed randomly and counterbalanced across subjects. During the postconditioning phase on day 7, the time spent in each compartment was measured for 900 s. The CPP score was designated as the time spent in the drug-paired compartment on day 7 minus the time spent in the same compartment in the preconditioning phase on day 2.
(§4) The data were analyzed using two-way repeated-measures ANOVA followed by Sidak’s multiple-comparison post hoc test, one-way ANOVA followed by Dunnett’s multiple-comparison post hoc test, or Student’s t-test using GraphPad Prism software. Values of p < 0.05 were considered statistically significant.

C57BL/6J mice [3] = assay: Expression of morphine-induced conditioned place preference; format: in vivo, male C57BL/6J mice; details: for time spent in the morphine-paired compartment, postconditioning / time spent in the morphine-paired compartment, preconditioning: n = 8; for morphine-induced CPP score compared with the vehicle-treated control group: 10 mg/kg p.o. before the postconditioning phase, Dunnett's test, UD-030 p = 0.038, NTX p = 0.042; for sedative effects (number of transitions between compartments): 10 mg/kg p.o., postconditioning phase
Experimental: as §1, §2, §3, §4

human MOP [4] = target: T1, human MOP; assay: Competitive radioligand binding assay, hMOP/CHO membranes
human DOP [5] = target: T2, human DOP (Homo sapiens, UniProt P41143); assay: Competitive radioligand binding assay, hDOP/CHO membranes
human KOP [6] = target: T3, human KOP (Homo sapiens, UniProt P41145); assay: Competitive radioligand binding assay, hKOP/CHO membranes
human NOP [7] = target: T4, human NOP (Homo sapiens, UniProt P41146); assay: Competitive radioligand binding assay, hNOP/CHO membranes
human DOP [8] = target: T2, human DOP; assay: [35S]-GTPγS binding assay, hDOP/CHO membranes; format: biochemical
human KOP [9] = target: T3, human KOP; assay: [35S]-GTPγS binding assay, hKOP/CHO membranes; format: biochemical
human NOP [10] = target: T4, human NOP; assay: [35S]-GTPγS binding assay, hNOP/CHO membranes; format: biochemical
[11] = Pharmacokinetics after a single oral administration (plasma, LC-MS/MS); details: male, Crl:CD1 (ICR), mouse; for concentration at 0.5 h / concentration at 1 h / concentration at 2 h / concentration at 4 h / concentration at 8 h / concentration at 24 h: in vivo; for AUC(0-t) / Cmax / Tmax: plasma; for Tmax: mice
[12] = 10 mg/kg p.o. 60 min before each morphine treatment (10 mg/kg, i.p.)
[13] = 10 mg/kg p.o. before each morphine treatment, UD-030 p < 0.001, NTX p = 0.003
[14] = 10 mg/kg p.o. 60 min before the postconditioning phase
[15] = 3 mg/kg p.o. 60 min before each morphine treatment (10 mg/kg, i.p.)

`C[C@@H](NC(=O)[C@@H](N)Cc1ccc(O)cc1)C(=O)NCC(=O)N(C)[C@@H](Cc1ccccc1)C(=O)NCCO` [DAMGO, reference compound] showed an Emax (human MOP [1]; hMOP/CHO, read-out: maximal effect (agonistic activity)) of over 95%.
With `O=C1CC[C@@]2(O)[C@H]3Cc4ccc(O)c5c4[C@@]2(CCN3CC2CC2)[C@H]1O5` [NTX, naltrexone, reference compound] the “time spent in the drug-paired compartment, postconditioning” value (C57BL/6J mice [2]; [12]) was 436.5 ± 49.7 s, the “time spent in the drug-paired compartment, preconditioning” value (C57BL/6J mice [2]; [12]) was 437.0 ± 38.1 s and the “morphine-induced CPP score compared with the vehicle-pretreated group” value (C57BL/6J mice [2]; [13]) was “significantly lower”. The “time spent in the morphine-paired compartment, postconditioning” value (C57BL/6J mice [3]; [14]) was 474.1 ± 29.9 s, the “time spent in the morphine-paired compartment, preconditioning” value (C57BL/6J mice [3]; [14]) was 441.6 ± 33.0 s and the “morphine-induced CPP score compared with the vehicle-treated control group” value (C57BL/6J mice [3]) was “significantly decreased”. The “sedative effects (number of transitions between compartments)” value (C57BL/6J mice [3]) was “did not exert sedative effects”.
With `CN1CC[C@]23c4c5ccc(O)c4O[C@H]2[C@@H](O)C=C[C@H]3[C@H]1C5` [Morphine, morphine hydrochloride] the “time spent in the drug-paired compartment, preconditioning” value (C57BL/6J mice [2]; morphine 10 mg/kg i.p. conditioning, vehicle-pretreated control mice) was 443.1 ± 33.2 s, the “time spent in the drug-paired compartment, postconditioning” value (C57BL/6J mice [2]; morphine 10 mg/kg i.p. conditioning, vehicle-pretreated control mice, p < 0.001 vs pre) was 554.4 ± 31.8 s and the “time spent in the morphine-paired compartment, preconditioning” value (C57BL/6J mice [3]; morphine 10 mg/kg i.p. conditioning, vehicle-treated control mice) was 443.6 ± 34.4 s. For the same compound, the “time spent in the morphine-paired compartment, postconditioning” value (C57BL/6J mice [3]; morphine 10 mg/kg i.p. conditioning, vehicle-treated control mice, p < 0.001 vs pre) was 554.4 ± 29.7 s.
In the case of `CC[C@]1(c2cc(NS(=O)(=O)C3CC3)ccc2F)[C@@H]2CN(CC3(O)Cc4ccccc4C3)C[C@@H]21` [UD-030], the Ki (human MOP [4]) is reported as 3.1 nM, the Ki (human DOP [5]) is reported as 1800 nM and the Ki (human KOP [6]) is reported as 460 nM. For the same compound, the Ki (human NOP [7]) was 1800 nM, the EC50 (human MOP [1]) was over 10000 nM and the IC50 (human MOP [1]) was 1.7 nM. For the same compound, the maximal inhibitory effect (human MOP [1]; against DAMGO) was over 95%, the “stimulation of [35S]-GTPγS binding” value (human MOP [1]; high concentration (10 µM)) was “did not stimulate” and the EC50 (human DOP [8]) was over 10000 nM. The IC50 (human DOP [8]) was 850 nM, the maximal inhibitory effect (human DOP [8]; against DPDPE) was over 95% and the “stimulation of [35S]-GTPγS binding” value (human DOP [8]; high concentration (10 µM)) was “did not stimulate”. For the same compound, the EC50 (human KOP [9]) was over 10000 nM, the IC50 (human KOP [9]) was 85 nM and the maximal inhibitory effect (human KOP [9]; against U-69593) was over 95%. The “stimulation of [35S]-GTPγS binding” value (human KOP [9]; high concentration (10 µM)) was “did not stimulate”, the EC50 (human NOP [10]) was over 10000 nM and the IC50 (human NOP [10]) was 330 nM. The maximal inhibitory effect (human NOP [10]; against nociceptin) was over 95%, the “stimulation of [35S]-GTPγS binding” value (human NOP [10]; high concentration (10 µM)) was “did not stimulate” and the “time spent in the drug-paired compartment, postconditioning” value (C57BL/6J mice [2]; [15]) was 470.6 ± 16.5 s. For the same compound, the “time spent in the drug-paired compartment, preconditioning” value (C57BL/6J mice [2]; [15]) was 445.2 ± 18.9 s, the “morphine-induced CPP score compared with the vehicle-pretreated group” value (C57BL/6J mice [2]; 3 mg/kg p.o. before each morphine treatment, p = 0.023) was “significantly lower” and the “time spent in the drug-paired compartment, postconditioning” value (C57BL/6J mice [2]; [12]) was 392.8 ± 42.3 s. For the same compound, the “time spent in the drug-paired compartment, preconditioning” value (C57BL/6J mice [2]; [12]) was 434.9 ± 30.5 s, the “morphine-induced CPP score compared with the vehicle-pretreated group” value (C57BL/6J mice [2]; [13]) was “significantly lower” and the “time spent in the morphine-paired compartment, preconditioning” value (C57BL/6J mice [3]; 3 mg/kg p.o. 60 min before the postconditioning phase) was 466.8 ± 20.7 s. The “time spent in the morphine-paired compartment, postconditioning” value (C57BL/6J mice [3]; 3 mg/kg p.o. 60 min before the postconditioning phase, p = 0.012 vs pre) was 536.5 ± 24.8 s, the “time spent in the morphine-paired compartment, postconditioning” value (C57BL/6J mice [3]; [14]) was 492.4 ± 32.8 s and the “time spent in the morphine-paired compartment, preconditioning” value (C57BL/6J mice [3]; [14]) was 461.3 ± 20.0 s. For the same compound, the “morphine-induced CPP score compared with the vehicle-treated control group” value (C57BL/6J mice [3]) was “significantly decreased”, the “sedative effects (number of transitions between compartments)” value (C57BL/6J mice [3]) was “did not exert sedative effects” and the “behavioral abnormalities during the session” value (C57BL/6J mice [3]; high-dose (10 mg/kg, p.o.)) was “No other notable behavioral abnormalities”. It also gave a concentration at 0.5 h ([11]; 0.5 mg/kg) of 1.09 ± 0.4 ng/mL, a concentration at 1 h ([11]; 0.5 mg/kg) of 2.86 ± 1.6 ng/mL and a concentration at 2 h ([11]; 0.5 mg/kg) of 2.96 ± 0.3 ng/mL. It also gave a concentration at 4 h ([11]; 0.5 mg/kg) of 4.61 ± 1.9 ng/mL, a concentration at 8 h ([11]; 0.5 mg/kg) of 4.95 ± 0.9 ng/mL and a concentration at 24 h ([11]; 0.5 mg/kg) of 0.231 ng/mL. For the same compound, the concentration at 0.5 h ([11]; 1 mg/kg) was 4.76 ± 1.9 ng/mL, the concentration at 1 h ([11]; 1 mg/kg) was 6.98 ± 1.7 ng/mL and the concentration at 2 h ([11]; 1 mg/kg) was 14.9 ± 0.9 ng/mL. It also gave a concentration at 4 h ([11]; 1 mg/kg) of 11.5 ± 2.9 ng/mL, a concentration at 8 h ([11]; 1 mg/kg) of 10.9 ± 2.1 ng/mL and a concentration at 24 h ([11]; 1 mg/kg) of 0.358 ng/mL. It also gave a concentration at 0.5 h ([11]; 2 mg/kg) of 11.8 ± 5.4 ng/mL, a concentration at 1 h ([11]; 2 mg/kg) of 25.5 ± 2.2 ng/mL and a concentration at 2 h ([11]; 2 mg/kg) of 36.1 ± 8.3 ng/mL. It also gave a concentration at 4 h ([11]; 2 mg/kg) of 26.7 ± 3.3 ng/mL, a concentration at 8 h ([11]; 2 mg/kg) of 18.8 ± 9.2 ng/mL and a concentration at 24 h ([11]; 2 mg/kg) of 0.35 ng/mL. It also gave a concentration at 0.5 h ([11]; 4 mg/kg) of 27.7 ± 24 ng/mL, a concentration at 1 h ([11]; 4 mg/kg) of 119 ± 35 ng/mL and a concentration at 2 h ([11]; 4 mg/kg) of 72.7 ± 18 ng/mL. It also gave a concentration at 4 h ([11]; 4 mg/kg) of 103 ± 15 ng/mL, a concentration at 8 h ([11]; 4 mg/kg) of 69.4 ± 10 ng/mL and a concentration at 24 h ([11]; 4 mg/kg) of 0.395 ± 0.1 ng/mL. It also gave an AUC(0-t) ([11]; 0.5 mg/kg) of 72.3 ng·h/mL, a Cmax ([11]; 0.5 mg/kg) of 4.95 ng/mL and a Tmax ([11]; 0.5 mg/kg, Tmax, 0.5 mg/kg p.o.) of 8 h. The AUC(0-t) ([11]; 1 mg/kg) was 176 ng·h/mL, the Cmax ([11]; 1 mg/kg) was 14.9 ng/mL and the Tmax ([11]; 1 mg/kg, Tmax, 1 mg/kg p.o.) was 2 h. For the same compound, the AUC(0-t) ([11]; 2 mg/kg) was 350 ng·h/mL, the Cmax ([11]; 2 mg/kg) was 36.1 ng/mL and the Tmax ([11]; 2 mg/kg, Tmax, 2 mg/kg p.o.) was 2 h. The AUC(0-t) ([11]; 4 mg/kg) was 1220 ng·h/mL, the Cmax ([11]; 4 mg/kg) was 119 ng/mL and the Tmax ([11]; 4 mg/kg, Tmax, 4 mg/kg p.o.) was 1 h. The Tmax ([11]; 4 mg/kg, time to reach the maximum plasma concentration (Tmax), over the doses 0.5, 1, 2 and 4 mg/kg p.o.) was 1 to 8 h.
